Experimental data as given in patent US9169255B2, “Caffeinated compounds and compositions for treatment of amyloid diseases and synucleinopathies” (ProteoTech Inc, priority 2011, dated 2015).

Experiments:
[1] = Plasma and brain pharmacokinetics in mice after intraperitoneal injection; format: in vivo; conditions: CD-1 female mice, i.p. injection at 50 mg/kg, 7-60 min post-dose; for AUC / Cmax: mouse, plasma, ip
From the text: For select compounds in this invention, we have used wild type mice to determine the following plasma pharmacokinetic (PK) parameters: maximal concentration (Cmax), and area under the curve (AUC) as derived from a time versus concentration plot. We have also determined the maximal mouse brain levels, and overall brain exposure over time of select compounds in this invention, expressed as Cmax-brain and AUC-brain, respectively. In order to establish the method, we assessed brain and plasma compound levels over time utilizing 50 mg/kg intraperitoneal (i.p.) injections of 2 control compounds. […] In a typical experiment to assess the compounds in this invention, we used CD-1 female mice with a sample size (n) equal to 4 mice per post-dose time-point (for example, 7, 15, 30, and 60 min post-dose). We chose early time points to assess initial exposure, when we expected plasma and brain exposure to be the high, though we may have missed even higher exposure at earlier time points (between 0 and 7 minutes) since brain and plasma levels were highest in our study at the earliest time point assessed (7 minutes).
For the purpose of these studies, each compound was formulated at 5 mg/mL in 20% polyethylene glycol (PEG)-400 in PBS+0.1% ascorbic acid (w/v). The dose volume was 10 mL/kg of body weight. Mice were administered test compound via intraperitoneal injection, and at about 2-3 minutes before scheduled sacrifice, they were deeply anesthetized with 2.5% avertin. Once anesthetized, whole blood was removed by cardiac puncture, transferred to appropriate EDTA-containing tubes, and immediately chilled on ice. This was followed by complete perfusion of each mouse with >15 ml cold 0.9% saline by cannulation of the left ventricle and clamping of the descending aorta. Brains were harvested, frozen on dry ice and stored at −80° C. for bioanalysis of the test compound. Plasma was extracted from whole blood by standard centrifugation techniques within 1 hour. Compounds were (liquid-liquid) extracted from plasma and brain homogenates using ethyl acetate, followed by HPLC/MS quantitation using methods (i.e. HPLC gradients and mass spectrometry parameters) developed for these novel compounds. All methods established sufficient stability in relevant matrices and solvents, and used internal quantitation controls. Quantitation was achieved using a calibration curve generated with compounds spiked into the appropriate matrix (i.e. 20% PEG-400/PBS+0.1% ascorbic acid). We have established lower limit of quantitative sensitivities of 5-25 ng/ml (plasma) and 5-25 ng/g (brain), sufficient for these studies. Following determination of the brain and plasma concentrations at the various post-dose time points, select plasma (Cmax and AUC) and brain (Cmax-brain and AUC-brain) PK parameters were determined with WinNonLin software (Pharsight Inc). We compared the values determined for the compounds in this invention to the values for the positive control compound that when administered at the same therapeutically relevant route and dose level (i.p. injection at 50 mg/kg) is known to be present in the plasma and the brain at levels sufficient for a biological effect (i.e. reduction of α-synuclein brain levels and improved motor function; data not shown).

[2] = target: T1, A53T-mutant human α-synuclein (Homo sapiens, UniProt P37840, A53T); experiment: Thioflavin S-positive aggregates in rotenone-treated BE-M17 cells overexpressing A53T α-synuclein; format: cell-based
T1 construct: expressed in transfected cells; host or cells: BE-M17 human neuroblastoma cells
From the text: To test the therapeutic potential of the compounds, a cell-based assay was utilized. In this assay, rotenone is used to induce mitochondrial oxidative stress and cause α-synuclein aggregation. The assay utilizes the binding of the fluorescent dye Thioflavin S to structures with high β-sheet content, including α-synuclein fibrils. Therefore, quantitative assessment of the extent of Thioflavin S-positive staining of fixed cells is used to test the ability of the test compounds to inhibit/prevent or decrease the amount of α-synuclein aggregates relative to cells that were treated with rotenone only. This study is presented in the following examples.
BE-M17 human neuroblastoma cells stably transfected with A53T-mutant human α-synuclein were obtained. Cell culture reagents were obtained from Gibco/Invitrogen, and cells were grown in OPTIMEM supplemented with 10% FBS, Penicillin (100 units/ml), Streptomycin (100 μg/ml) and 500 μg/ml G418 as previously described (Ostrerova-Golts et al., J. Neurosci., 20:6048-6054, 2000).
Thioflavin S is commonly used to detect aggregated protein structures in situ, including in brain tissue (Vallet et al., Acta Neuropathol., 83:170-178, 1992), and cultured cells (Ostrerova-Golts et al., J. Neurosci., 20:6048-6054, 2000), whereas Thioflavin T is often used as an in vitro reagent to analyze the aggregation of soluble proteins into fibrils enriched in β-pleated sheet structures (LeVine III, Prot. Sci., 2:404-410, 1993). Therefore, Thioflavin S histochemistry was used on cultured cells to detect aggregates containing a high degree of β-pleated structures that formed in response to oxidative stress-inducing agents (in this case rotenone) as previously described, with minor modifications (Ostrerova-Golts et al., J. Neurosci., 20:6048-6054, 2000). Briefly, for these studies cells were grown on Poly-D-Lysine coated glass slide chambers at approximately 4.5−5.5×10^4 cells/cm^2. After 16-18 hours, cells were treated with 500 nM or 2 μM rotenone (Sigma) or vehicle (0.05% DMSO) as indicated. Within 15 minutes of rotenone (or vehicle) addition, compounds were added at the indicated concentration, or mock-treatment was performed in which cell culture media only (no compound) was added. Identical treatments were repeated after 48 hours. After an additional 24 hours, cells were fixed for 25 minutes in 3% paraformaldehyde. After a PBS wash and a deionized water wash, the cells were incubated with 0.015% Thioflavin S in 50% ethanol for 25 minutes, washed twice for four minutes in 50% ethanol and twice for five minutes in deionized water and then mounted using an aqueous-based mountant designed to protect against photobleaching. Aggregates that bind to Thioflavin S were detected with a fluorescent microscope using a High Q FITC filter set (480 to 535 nm bandwidth) and a 20× objective lens unless otherwise indicated. Between 8 and 20 (usually 16-18) representative images per condition were selected and imaged using Q Capture software by an experimenter who was blinded to treatment conditions. To assess the amount of Thioflavin S-positive aggregates, the total area per field covered by Thioflavin S-positive inclusions was determined by image analysis and quantitation. […] Spurious, non-cell associated fluorescence was manually removed. Unless indicated otherwise, comparisons between groups were made by comparing mean relative amounts of Thioflavin S-positive inclusions for a given treatment condition (i.e. cells treated with rotenone only versus cells treated with rotenone and test compound at a given concentration). Statistical analyses were performed with GraphPad Prism (GraphPad Inc). Differences between means (two samples) were assessed by the Student's t test. Differences among multiple means were assessed by one-factor ANOVA followed by Dunnett's post hoc test, compared to rotenone only treated cells. […]

| Compound | AUC-brain [1] | Cmax-brain [1] [ng/g] | AUC [1] [ng·h/mL] | Cmax [1] [ng/mL] | reduction of rotenone-induced Thioflavin S-positive aggregates relative to rotenone only-treated cells ([2]; 500 nM rotenone, 500 nM compound) [%] | reduction of rotenone-induced Thioflavin S-positive aggregates relative to rotenone only-treated cells ([2]; 500 nM rotenone, 2 μM compound) [%] | reduction of rotenone-induced Thioflavin S-positive aggregates relative to rotenone only-treated cells ([2]; 2 μM rotenone, 2 μM compound) [%] | reduction of rotenone-induced Thioflavin S-positive aggregates relative to rotenone only-treated cells ([2]; 2 μM rotenone, 5 μM compound) [%] | reduction of rotenone-induced Thioflavin S-positive aggregates relative to rotenone only-treated cells ([2]; 500 nM rotenone, 5 μM compound) [%] | reduction of rotenone-induced Thioflavin S-positive aggregates relative to rotenone only-treated cells ([2]; 2 μM rotenone, 500 nM compound) [%] |
| --- | --- | --- | --- | --- | --- | --- | --- | --- | --- | --- |
| Cn1cnc2c1c(=O)n(Cc1ccc(O)c(O)c1)c(=O)n2Cc1ccc(O)c(O)c1 [PD-150, 7-Methyl-1,3-bis(3′,4′-dihydroxy)benzylxanthine] | 3,048 min*ng/g | 99.5 | 2130 | 3280 | – | – | – | – | – | – |
| Cn1c(=O)n(Cc2ccc(O)c(O)c2)c(=O)c2c1ncn2Cc1ccc(O)c(O)c1 [PD-151, 3-Methyl-1,7-bis(3′,4′-dihydroxybenzyl)xanthine] | 2,147 min*ng/g | 59.2 | 3540 | 5340 | 52 | 84 | 58 | 60 | – | – |
| Cn1c(=O)c2c(ncn2Cc2ccc(O)c(O)c2)n(Cc2ccc(O)c(O)c2)c1=O [PD-152] | – | – | – | – | – | 54 | 79 | – | 55 | 78 |
